Where “and” joins values, the source holds several entries; their conditions need not be identical. Identical values can stand only once.

These results are taken from US9587266B2, “Mutant luciferases” (University of Massachusetts, priority 2011, dated 2017).

One experiment deals with T1, S347A mutant luciferase (Photinus pyralis, UniProt P08659, S347A).
T1 construct: The full firefly (Photinus pyralis) luciferase gene was PCR amplified from pGL3 (Promega); GST (N, cleaved yes); made in house; host or cells: E. coli JM109
T1 sequence (P08659 whole entry S347A): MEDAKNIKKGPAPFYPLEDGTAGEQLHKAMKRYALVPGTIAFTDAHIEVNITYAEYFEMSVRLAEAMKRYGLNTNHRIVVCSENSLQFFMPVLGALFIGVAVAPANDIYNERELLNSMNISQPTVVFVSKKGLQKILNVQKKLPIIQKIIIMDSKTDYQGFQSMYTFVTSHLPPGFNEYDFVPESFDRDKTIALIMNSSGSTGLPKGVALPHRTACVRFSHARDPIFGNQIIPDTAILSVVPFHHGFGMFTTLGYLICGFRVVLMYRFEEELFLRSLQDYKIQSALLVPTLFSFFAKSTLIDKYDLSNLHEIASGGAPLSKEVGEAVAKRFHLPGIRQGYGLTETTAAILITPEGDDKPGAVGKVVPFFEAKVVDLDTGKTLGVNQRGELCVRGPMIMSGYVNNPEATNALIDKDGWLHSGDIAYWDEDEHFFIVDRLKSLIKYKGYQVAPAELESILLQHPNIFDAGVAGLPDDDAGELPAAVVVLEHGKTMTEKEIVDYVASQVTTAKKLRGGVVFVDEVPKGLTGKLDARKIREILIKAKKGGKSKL
In kind it is biochemical. Particulars: purified protein. How it is done:
(§1) The PCR product was cloned into the BamH1 and NotI sites of pGEX6P-1 for bacterial expression. Mutant proteins were created using the Quickchange site-directed mutagenesis kit (Stratagene). Saturating mutagenesis was performed using the used the degenerate codon NNK at sites predicted to impact or alter substrate biding including F247, T251, L286, S347, R337, R218, Q338, Y340, A313, and I351 using the degenerate codon NNK.
(§2) Luminescence assays in 96-well plates were initiated by adding 30 μL 2× substrate in 20 mM Tris pH 7.6, 0.1 mM EDTA, 8 mM MgSO4, 4 mM ATP, and 1 mM TCEP to 30 μL of 20 nM purified luciferase in 20 mM Tris pH 7.6, 0.1 mM EDTA, 1 mM TCEP and 0.4 mg/mL BSA.

Another experiment deals with T2, R218K mutant luciferase (Photinus pyralis, UniProt P08659, R218K).
T2 construct: The full firefly (Photinus pyralis) luciferase gene was PCR amplified from pGL3 (Promega); GST (N, cleaved yes); made in house; host or cells: E. coli JM109
T2 sequence (P08659 whole entry R218K): as the sequence (P08659 whole entry S347A) above, with R218K, A347S counted along it
The format is biochemical. How it is done:
as §1, §2

Experiment [1] concerns the target T3, T251S mutant luciferase in live CHO cells (Photinus pyralis, UniProt P08659, T251S).
T3 construct: The full firefly (Photinus pyralis) luciferase gene was PCR amplified from pGL3 (Promega); expressed in transfected cells; host or cells: CHO cells
The experiment is described as follows: Intact cell assay, transfected CHO cells. The format is cell-based. Here is the method: (§3) The mutants were cloned into the BamHI-Not I site of pcDNA 3.1 and transfected into CHO cells for live and lysed cell experiments. CHO-cell transfections were performed using Lipofectamine 2000 in 96-well white tissue culture treated plates (Costar) for intact cell assays, or 6-well plates for lysed cell assays. For intact cells, 0.075 μg DNA/well was transfected. For lysed cells, 2.25 μg DNA/well was transfected and one full 6-well plate was transfected for each mutant. Assays were performed in triplicate 24 hours post-transfection.
(§4) Transfected CHO cells were washed with HBSS and overlaid with 60 μL substrate in HBSS.

The target in experiment [2] is T4, R218K mutant luciferase in live CHO cells (Photinus pyralis, UniProt P08659, R218K).
T4 construct: The full firefly (Photinus pyralis) luciferase gene was PCR amplified from pGL3 (Promega); expressed in transfected cells; host or cells: CHO cells
T4 sequence (P08659 whole entry R218K): as the sequence (P08659 whole entry S347A) above, with R218K, A347S counted along it
The experiment is described as follows: Intact cell assay, transfected CHO cells. The format is cell-based. Here is the method:
as §3, §4

T3 sequence (P08659 whole entry T251S): as the sequence (P08659 whole entry S347A) above, with T251S, A347S counted along it

In the case of `O=C(O)[C@H]1CSC(c2nc3cc4c(cc3s2)NCC4)=N1` [CycLuc1], the “Apparent Vmax” value on S347A mutant luciferase is recorded as 135 ± 0.8 ×10^−5 cps; at R218K mutant luciferase (R218K luciferase, purified protein), 134 ± 1.9 ×10^−5 cps. Further, the Km is 2.68 ± 0.07 µM on S347A mutant luciferase (3 minutes post-substrate addition, read-out: Apparent Km); 1.8 µM and 1.79 µM on R218K mutant luciferase (R218K luciferase, purified protein, 3 minutes post-substrate addition, read-out: Apparent Km). Also, on R218K mutant luciferase (R218K mutant), the “maximal sustained light emission as % of that of D-luciferin with WT luciferase” value worked out at 12.5%. The “improvement in the maximal sustained emission” value at R218K mutant luciferase (R218K mutant relative to wild-type luciferase) came out at 14 fold. Besides, the “substrate concentrations at which light output was superior to D-luciferin” value in experiment [1] and in experiment [2] was below 30 µM throughout.

Usually Km stands for the concentration of substrate that gives half-maximal velocity.
